Measurements taken from patent US11229643B2, “Combinations of FGFR4 inhibitors and bile acid sequestrants” (NOVARTIS AG, priority 2016, dated 2022).

Experiments:
[1] = Dog cross-over study: plasma miR-122 levels (Taqman, standard curve method); assay type: in vivo, Beagle dogs
Protocol: Plasma miR-122 levels, a liver enriched microRNA used as biomarker of liver injury (Starkey Lewis P J et al., Clin Pharmacol Ther, 2012, 291-293), were determined. miR-122 is considered as a liver-specific marker.
Small RNA was extracted from 50 μl of plasma by using the miRNeasy/MinElute kit and following the instructions of the manufacturer (Qiagen). Elution of small RNA was realized in 14 μl of nucleic acid-free H2O.
3.2 μl of eluted small RNA was reverse transcribed into cDNA by using the Megaplex RT primer human pool A and B and the Taqman MicorRNA Reverse Transcription kit (Applied Biosystems/Life Technologies, reference 4366596) and following the instructions of the manufacturer.
2.5 μl of cDNA was preamplified by using the Megaplex Preamp primer human pool A and B (Applied Biosystems/Life Technologies, reference 4399201 and 4399233) and the Taqman PreAmp Master mix (Applied Biosystems/Life Technologies, reference 4391128) and following the instructions of the manufacturer.
microRNA miR-122 was amplified from preamplified cDNA by using a commercially available validated Taqman assay (reference 002245) diluted in the Taqman MasterMixII (Applied Biosystems/Life Technologies) and following the instructions of the manufacturer.
The relative quantification of plasmatic microRNA levels was performed using the standard curve method to generate expression values as number of molecules.
Statistical significance of mRNA measurements was assessed using the two-sample unequal variance, two-tailed distribution (hetero-scedastic Student's t-test, Excel). Coefficients of variation with a P value <0.05 were considered to be statistically significant.

[2] = Dog cross-over study of Compound A with or without cholestyramine: serum ALT activity; assay type: in vivo, Beagle dogs; settings: Cpd A 5 mg/kg/day
Protocol: Male Beagle dogs were obtained from Marshall BioResources (North Rose, N.Y.). For the study, all animals were nave to treatment. All animals used in the study were healthy and suitable for use. The dose volume for Cpd A and its vehicle was 5 mL/kg. For CHO, the dosing aliquot was dispersed in 75 mL total animal drinking water.
For the study, a dosing paradigm was followed with initial loading dose of either vehicle or CHO on the last day of pretest (day −1), and dosing of either vehicle or CHO on days 1-7.
N-(5-cyano-4-((2-methoxyethyl)amino)pyridin-2-yl)-7-formyl-6-((4-methyl-2-oxopiperazin-1-yl)methyl)-3,4-dihydro-1,8-naphthyridine-1(2H)-carboxamide dosing was initiated on day 8, with the second dosing event of each day for either vehicle or CHO. Food was presented to the animals after the second daily dosing event. Animals were not dosed on day 15. Dosing was restarted on day 24 and the dose groups crossed over on day 38-44, with the last day of dosing on day 44.
Clinical observations, twice-weekly body weights, and daily food consumption determinations were performed.
Fecal samples were collected for bile acid (BA) analysis once during pretest and on days 7, 10, 14, 17, 24, 28, 35, 42, and 49.
Plasma was collected from all animals for bile acid profiling during the study, concurrent with clinical pathology and/or toxicokinetic sampling as follows: at approximately 3 hours postdose (post vehicle, CHO or Cpd A, as appropriate) on days 1, 3, 7, 8, 11, 14, 15, 18, 21, 23, 25, 28, 31, 35, 38, 42, 45, 49, and 52. On days 8, 14, 25, and 39 only, samples were collected at predose and approximately 0.5, 1, 3, 7, and 24 hours postdose (post Cpd A dosing). In addition, on day 44, bile acid biomarker samples were collected at 3, 7, and 24 hours postdose (concurrent with the last toxicokinetic blood collection).

[3] = tested on: 456 kinases; settings: cited from earlier work
[4] = tested on: advanced HCC; settings: patients with advanced HCC; cited from earlier work
[5] = 4-week dog study, ALT and AST; assay type: in vivo
From the text: The maximal increase was 6-fold and ≤2-fold for ALT and AST respectively (relative to pre-dose values), and occurred during week 2 of the study. Generally, there was no further increase in transaminase levels despite continued dosing over the 4-weeks indicating a level of adaptation to these pharmacologically mediated effects.

[6] = relative to pre-dose values, during week 2 of 4-week dog study

increase in miR-122 levels, maximum average ([1]; recovery period study day 15-23, at day 21, compared with study day 1-7): ≤ 5.4 fold
increase in miR-122 levels, peak ([1]; recovery study days 45-52, Group 1 animal 1001, day 49): ≤ 22.2 fold
increase in miR-122 levels, peak ([1]; recovery study days 45-52, Group 1 animal 1003, day 49): ≤ 47.9 fold
increase in miR-122 levels, peak ([1]; recovery study days 45-52, Group 1 animal 1005, day 49): ≤ 16.4 fold
increase in miR-122 levels, peak ([1]; recovery study days 45-52, Group 1 animal 1006, day 49): ≤ 40.1 fold
change in miR122 compared to respective controls, overall ([1]; some animals): minimal to moderate increases
increase in miR-122 levels, maximum average ([1]; study day 8-14, at day 14, compared with study day 1-7): ≤ 2.5 fold
increase in miR-122 levels, maximum ([1]; study days 25-38, animal 2003, at day 38): ≤ 151 fold
increase in miR-122 levels, maximum average ([1]; study days 25-38, animal 2006, at day 31): ≤ 63 fold
increase in miR-122 levels, average ([1]; study days 39-42, following the second cross-over): ≤ 7.8 fold
SMILES: COCCNc1cc(NC(=O)N2CCCc3cc(CN4CCN(C)CC4=O)c(C=O)nc32)ncc1C#N [Compound A, N-(5-cyano-4-((2-methoxyethyl)amino)pyridin-2-yl)-7-formyl-6-((4-methyl-2-oxopiperazin-1-yl)methyl)-3,4-dihydro-1,8-naphthyridine-1(2H)-carboxamide]
increase in serum ALT activity ([2]; compared with pretest, first dosing period (from day 8)): 3.5 fold
change in serum ALT activity, in general ([2]; dogs): minimal to moderate increases
increase in serum ALT activity ([2]; following the first cross-over): 6 fold
increase in serum ALT activity ([2]; following the second cross-over): 3.5 fold
targets found in kinome wide scan [3]: FGFR4 was the only target
clinical activity [4]: promising clinical activity
recovery of ALT/AST increases evident ([5]; day following cessation of Compound A administration): ≤ 8 days
maximal increase in ALT [5, 6]: 6 fold
maximal increase in AST [5, 6]: ≤ 2 fold
